# Like-named read-outs stand apart in the source and are kept apart here.
# Assays:
# [1] = tested on: Aβ40 in brain of wild-type mice; assay: Mouse acute in vivo model (inhibition of Aβ40 in brain of wild-type mice); conditions: 4 h post dose
# Protocol: Mouse Acute In Vivo Model (Inhibition of Aβ40 in Brain of Wild-Type Mice)
# Single Dose Efficacy in Mice
# The mouse single dose efficacy was measured in brain homogenate from C57Bl/6J wildtype mice after DEA extraction as described in H. Hilpert et al., J. Med. Chem. 2013, 56, 3980-3995 (dx.doi.org/10.1021/jm400225m).
# (§1) Aβ 40 concentration was determined after solid phase extraction as described above and following a modified protocol from Perkin-Elmer with a commercially available antibody against the N-terminal part of rat Aβ (252Q6, Invitrogen cat. No. AMB0062) and an in-house C-terminal specific anti-Aβ40 antibody (BAP-24, Brockhaus M. et al., J. Neuroreport, 1998, 9:1481-1486) bound to acceptor beads (PerkinElmer, Cat. 6772002). 20 μl analyte per well (reconstituted extracts or standard) were loaded to a White Optiplate-96 (Perkin-Elmer, Cat#6005290). Then, a mixture of biotinylated BAP24 antibody (1:2000 diluted at approximately 1 nM final concentration) and antibody 252Q6 bound to AlphaLISA acceptor beads (Perkin-Elmer cat. No. 6772002 (1:100 diluted, 10 ug/mL final concentration) in 1× AlphaLISA buffer (Perkin-Elmer, AL000F) was added. After 1 hour room temperature incubation in the dark, 20 uL of a streptavidin coated donor beads dilution (40 μg/mL) were added and incubated for 30 minutes in the dark. Light emission at 615 nm was recorded using an EnVision AlphaScreen Reader (Perkin-Elmer). Levels of Aβ40 were calculated as percentage of the baseline samples from non-treated animals.
# Aβ40 lowering was determined after oral administration in wild-type mice (C57Bl/6J mice, n=3-4) 4 h post dosing. Wild-type mice were used as they have a normal physiological level of APP expression and are thus expected to provide a better physiological model for Aβ-peptide production than APP-transgenic organisms. In vivo efficacy is a key factor for appropriate drug candidates, being more relevant than in vitro activities.
# [2] = molecular target: hERG channel (Homo sapiens, UniProt Q12809); assay: hERG IC20 assay; assay type: cell-based
# Excerpt: The methods to determine the hERG IC20 values was described in Industrializing electrophysiology: HT automated patch clamp on SyncroPatch® 96 using instant frozen cells. Polonchuk L., Methods Mol Biol. 2014; 1183:81-92. (doi: 10.1007/978-1-4939-1096-0_5.) PMID:25023303
# QT prolongation is a cardiovascular risk caused by drug candidates which inhibit the hERG channel (human ether a go-go). A sufficient safety margin between the hERG IC20 value and the free plasma concentration necessary to achieve the envisaged thereapeutic effects is desired (ICH. The nonclinical evaluation of the potential for delayed ventricular repolarization (QT interval prolongation) by human pharmaceuticals (S7B), issued as CPMP/ICH/423/02, adopted by CHMP in May 2005 (http://www.ich.org/cache/compo/276-254-1.html; Redfern W S, Carlsson L, Davis A S, Lynch W G, MacKenzie I, Palethorpe S, Siegl P K, Strang I, Sullivan A T, Wallis R, Camm A J, Hammond T G. Relationships between preclinical cardiac electrophysiology, clinical QT interval prolongation and torsade de pointes for a broad range of drugs: evidence for a provisional safety margin in drug development. Cardiovasc Res. 2003 Apr. 1; 58(1):32-45.)). Reducing the activity against efflux transporters expressed at the blood-brain-barrier such as P-glycoprotein P-gp, might result in reduction of the free plasma concentration by optimizing brain penetration.
# [3] = molecular target: Human P-gp (Homo sapiens, UniProt P08183); assay: P-gp transport assay (human); assay type: in vitro ADME; conditions: efflux ratio
# Excerpt: (§2) P-Gp Transport Assay (Human and Mouse) (P-Gp Assay)
# (§3) In the assay of the P-gp efflux ratio ER as described hereinabove, a compound with ER<2.5 is regarded most suitable. In addition, compounds with low hERG channel binding are suitable as well.
# [4] = molecular target: Mouse P-gp (Mus musculus, UniProt P21447); assay: P-gp transport assay (mouse); assay type: in vitro ADME; conditions: efflux ratio
# Excerpt: as §2, §3
# [5] = Rat single dose PK study; assay type: in vivo; conditions: 1 mg/kg; for concentration at 4 h: oral
# Protocol: (§4) Rat Single Dose PK Study (Inhibition of CSF Aβ40 in Wistar Rats)
# (§5) The rat single dose PK study was described in H. Hilpert et al., J. Med. Chem. 2013, 56, 3980-3995 (dx.doi.org/10.1021/jm400225m) with slight modifications.
# (§6) Blood is transferred into a labeled EDTA-K2 Eppendorf tube and the sample is mixed by inverting the tubes several times. Blood is stored at −20° C.
# [6] = tested on: CSF Aβ40; assay: Rat single dose study, inhibition of CSF Aβ40 in Wistar rats; assay type: in vivo; conditions: rat CSF Aβ40, 1 mg/kg, 4 h post dose
# Protocol: as §4, §5
# as §1, with “determined without” for “determined after”, “extraction” for “extraction as described above and”, “20 μL” for “20 uL”, “of Aβ 40” for “of Aβ40”
# [7] = Cynomolgus monkey single dose PK study; assay type: in vivo, Cynomolgus monkey (Macacaca fascicularis)
# Excerpt: Cynomolgus Monkey (Macacaca fascicularis) Single Dose PK Study and Plasma Aβ40 Determination
# Blood and plasma collection will always be performed in the treatment cage. The animal care keeper grabs either one arm or one leg through the bars. The hairs are shaved for better visibility of the vein. The blood vessel is squeezed, the vein is punctured by using a butterfly and blood is taken. Once enough blood has been withdrawn a cotton swab is placed over the injection site and the needle is gently removed. Bleeding is stopped by pressing a cotton swab on the wound. Plasma samples were taken between 5 min and 48 h.
# Plasma Preparation Cynomolgus
# as §6
# Sequence of hERG channel (Q12809 whole entry): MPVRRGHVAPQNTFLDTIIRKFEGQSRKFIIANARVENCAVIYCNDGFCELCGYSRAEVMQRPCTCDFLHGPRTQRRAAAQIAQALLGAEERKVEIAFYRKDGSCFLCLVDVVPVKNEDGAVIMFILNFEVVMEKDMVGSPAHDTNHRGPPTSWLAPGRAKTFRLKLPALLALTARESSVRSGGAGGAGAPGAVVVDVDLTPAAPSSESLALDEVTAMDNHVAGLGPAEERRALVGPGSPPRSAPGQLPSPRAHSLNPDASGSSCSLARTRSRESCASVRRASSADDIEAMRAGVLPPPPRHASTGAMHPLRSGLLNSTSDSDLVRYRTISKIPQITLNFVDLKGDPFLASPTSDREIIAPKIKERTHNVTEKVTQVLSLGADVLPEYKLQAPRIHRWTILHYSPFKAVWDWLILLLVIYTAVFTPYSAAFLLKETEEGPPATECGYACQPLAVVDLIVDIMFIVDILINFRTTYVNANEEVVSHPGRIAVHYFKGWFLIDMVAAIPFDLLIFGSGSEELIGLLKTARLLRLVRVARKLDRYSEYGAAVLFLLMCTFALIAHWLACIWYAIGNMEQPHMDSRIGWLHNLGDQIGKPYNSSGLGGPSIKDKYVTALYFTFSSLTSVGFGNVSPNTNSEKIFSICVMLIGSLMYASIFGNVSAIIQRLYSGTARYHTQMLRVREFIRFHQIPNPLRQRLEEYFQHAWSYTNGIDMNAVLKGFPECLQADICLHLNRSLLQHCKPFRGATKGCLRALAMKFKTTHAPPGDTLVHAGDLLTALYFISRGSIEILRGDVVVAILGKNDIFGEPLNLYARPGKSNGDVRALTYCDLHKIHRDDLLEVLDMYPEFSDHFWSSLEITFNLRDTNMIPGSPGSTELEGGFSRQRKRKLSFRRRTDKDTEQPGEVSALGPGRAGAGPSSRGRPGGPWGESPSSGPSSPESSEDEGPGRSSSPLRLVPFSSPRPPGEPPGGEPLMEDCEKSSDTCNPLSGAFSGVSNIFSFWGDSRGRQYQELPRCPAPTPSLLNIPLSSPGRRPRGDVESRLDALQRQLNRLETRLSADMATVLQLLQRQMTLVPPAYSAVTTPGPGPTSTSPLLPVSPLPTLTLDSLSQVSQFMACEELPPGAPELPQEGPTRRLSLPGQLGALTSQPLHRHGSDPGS
# Sequence of Human P-gp (P08183 whole entry): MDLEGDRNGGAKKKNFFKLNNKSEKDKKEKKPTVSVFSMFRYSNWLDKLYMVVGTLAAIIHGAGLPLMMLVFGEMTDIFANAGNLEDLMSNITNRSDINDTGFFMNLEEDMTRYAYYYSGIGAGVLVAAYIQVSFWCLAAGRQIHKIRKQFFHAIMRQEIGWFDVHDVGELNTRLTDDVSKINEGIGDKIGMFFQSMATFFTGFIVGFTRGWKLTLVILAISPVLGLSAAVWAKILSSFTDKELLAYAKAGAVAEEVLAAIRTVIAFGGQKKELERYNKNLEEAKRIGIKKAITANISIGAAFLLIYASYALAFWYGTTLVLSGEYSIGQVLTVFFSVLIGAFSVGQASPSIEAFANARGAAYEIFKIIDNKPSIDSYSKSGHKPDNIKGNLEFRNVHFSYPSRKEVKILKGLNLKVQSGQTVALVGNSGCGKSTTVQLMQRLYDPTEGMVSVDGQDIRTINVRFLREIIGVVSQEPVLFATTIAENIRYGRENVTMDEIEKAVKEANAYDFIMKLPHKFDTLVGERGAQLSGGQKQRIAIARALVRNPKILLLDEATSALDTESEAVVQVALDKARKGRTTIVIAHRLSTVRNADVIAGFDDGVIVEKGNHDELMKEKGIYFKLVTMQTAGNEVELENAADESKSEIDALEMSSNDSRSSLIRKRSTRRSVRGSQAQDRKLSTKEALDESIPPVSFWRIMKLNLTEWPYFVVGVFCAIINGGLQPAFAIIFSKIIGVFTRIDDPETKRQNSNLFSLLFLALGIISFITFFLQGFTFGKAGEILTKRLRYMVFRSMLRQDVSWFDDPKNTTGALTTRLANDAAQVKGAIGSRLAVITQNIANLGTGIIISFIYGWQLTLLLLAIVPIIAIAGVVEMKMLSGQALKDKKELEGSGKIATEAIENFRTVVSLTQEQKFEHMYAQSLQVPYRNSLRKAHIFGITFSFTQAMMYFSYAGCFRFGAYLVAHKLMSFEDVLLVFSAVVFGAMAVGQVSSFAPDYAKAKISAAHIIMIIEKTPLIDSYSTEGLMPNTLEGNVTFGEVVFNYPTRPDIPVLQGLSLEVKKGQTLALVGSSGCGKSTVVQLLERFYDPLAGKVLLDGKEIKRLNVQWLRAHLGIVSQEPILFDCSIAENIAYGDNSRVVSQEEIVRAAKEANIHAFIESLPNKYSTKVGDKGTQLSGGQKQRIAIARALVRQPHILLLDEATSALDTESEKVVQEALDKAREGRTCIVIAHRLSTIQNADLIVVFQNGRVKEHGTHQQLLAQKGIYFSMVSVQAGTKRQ
# Sequence of Mouse P-gp (P21447 whole entry): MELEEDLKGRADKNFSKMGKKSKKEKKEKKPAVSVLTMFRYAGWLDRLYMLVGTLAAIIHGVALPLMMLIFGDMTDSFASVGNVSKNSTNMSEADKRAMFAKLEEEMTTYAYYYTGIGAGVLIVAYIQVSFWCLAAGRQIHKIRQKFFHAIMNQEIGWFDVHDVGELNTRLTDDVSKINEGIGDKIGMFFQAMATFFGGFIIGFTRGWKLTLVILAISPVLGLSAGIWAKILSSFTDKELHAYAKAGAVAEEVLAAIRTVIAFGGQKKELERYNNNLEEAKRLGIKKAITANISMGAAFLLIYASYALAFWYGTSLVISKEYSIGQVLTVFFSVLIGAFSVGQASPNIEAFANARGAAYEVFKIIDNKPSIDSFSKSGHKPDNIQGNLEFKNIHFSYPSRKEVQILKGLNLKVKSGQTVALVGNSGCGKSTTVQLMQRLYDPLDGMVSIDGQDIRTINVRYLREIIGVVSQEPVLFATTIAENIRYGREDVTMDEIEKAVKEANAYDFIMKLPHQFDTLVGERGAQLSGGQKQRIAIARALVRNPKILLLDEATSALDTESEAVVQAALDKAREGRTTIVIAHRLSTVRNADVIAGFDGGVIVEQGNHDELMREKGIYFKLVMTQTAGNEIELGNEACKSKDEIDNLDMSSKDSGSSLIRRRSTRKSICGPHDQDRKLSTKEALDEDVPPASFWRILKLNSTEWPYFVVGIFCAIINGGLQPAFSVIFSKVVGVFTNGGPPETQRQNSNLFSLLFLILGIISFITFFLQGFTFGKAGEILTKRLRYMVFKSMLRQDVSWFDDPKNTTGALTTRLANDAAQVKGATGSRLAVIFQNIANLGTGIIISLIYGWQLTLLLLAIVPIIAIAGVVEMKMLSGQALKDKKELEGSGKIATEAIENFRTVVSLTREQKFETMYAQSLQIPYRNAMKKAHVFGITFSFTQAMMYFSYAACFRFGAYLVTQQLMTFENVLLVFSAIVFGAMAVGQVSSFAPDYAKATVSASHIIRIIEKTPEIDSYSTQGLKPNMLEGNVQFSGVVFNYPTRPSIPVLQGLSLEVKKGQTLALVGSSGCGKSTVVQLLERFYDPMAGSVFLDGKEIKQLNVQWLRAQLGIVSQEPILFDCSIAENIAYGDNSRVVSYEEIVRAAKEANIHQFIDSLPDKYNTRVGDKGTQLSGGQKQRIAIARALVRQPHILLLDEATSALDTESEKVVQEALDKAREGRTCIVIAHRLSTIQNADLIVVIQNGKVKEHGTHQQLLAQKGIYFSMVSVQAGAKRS
structure (smiles),measurement,setting,value
C[C@]1(c2nc(NC(=O)c3ccc(C#N)cn3)ccc2F)N=C(N)O[C@H](C(F)(F)F)[C@@H]1F [Comparator 6],Brain Aβ-lowering 3 mg/kg,[1]; single p.o. dose 3 mg/kg,86%
same,Brain Aβ-lowering 10 mg/kg,[1]; single p.o. dose 10 mg/kg,94%
same,higher affinity to hERG than example 1,[2],6 fold
same,IC20,"[2]; human, hERG IC20 assay",0.4 µM
same,Human P-gp ER,[3],1.1
same,Mouse P-gp ER,[4],2.4
same,"Plasma concentration at 4 h, free","[5]; 4 h, free unbound",0.0363 µM
same,Plasma concentration at 4 h,"[5]; 4 h, total",0.193 µM
same,concentration at 4 h,"[5]; Wistar, plasma, 4 h, free unbound, read-out: Plasma concentration at 4 h, free",0.0363 µM
same,concentration at 4 h,"[5]; Wistar, plasma, 4 h, free, read-out: Plasma concentration at 4 h, free",0.085 µg/mL
same,concentration at 4 h,"[5]; Wistar, plasma, 4 h, total, read-out: Plasma concentration at 4 h",0.085 µg/mL
same,bioavailability,"[5]; Wistar, plasma, po, read-out: Oral Bioavailability F",19%
same,CSF Aβ-lowering 1 mg/kg at 4 h,[6],77%
same,lower exposure compared to example 1,[7],5 fold
same,clearance,[7]; plasma,0.582 L/h/kg
same,bioavailability,"[7]; plasma, po, read-out: Oral Bioavailability F",63%
same,half-life,"[7]; plasma, po, read-out: t1/2 p.o. (converted)",11 h
